Measured values from patent US20190314311A1, “PHARMACEUTICAL COMPOSITION” (JAPAN SCIENCE AND TECHNOLOGY AGENCY, priority 2016, published 2019).

Assays:
SCA1 mice [1] = assay: immunohistochemical analysis of PolyQ inclusion bodies in brain; format: in vivo, mouse; settings: 12-week-old SCA1 mice, 6% arginine in drinking water from 3 weeks
Method: It was reported that SCA1 mice develop polyQ inclusion bodies (PolyQ protein aggregates) in their neurons of the cerebral cortex and hippocampus from around 4 weeks of age (Non-Patent Document 15).
PolyQ inclusion bodies in brain sections were detected using immunohistochemical analysis. First, ten-micrometer-thick frozen sections of 12 week-old SCA1 mouse brains were prepared according to the method described in Non-Patent Document 17. The sections were blocked in PBS containing 5% goat serum and 0.1% Triton X-100 for 1 hour at room temperature, then incubated with a rabbit anti-ubiquitin antibody (clone FK2, 1:500) at 4° C. overnight, followed by an Alexa Fluor 488-conjugated goat anti-rabbit IgG antibody (1:1,000, Life Technologies) for 1 hour at room temperature. […]
By confocal laser scanning microscopy, inclusion bodies stained with the anti-ubiquitin antibody can be visualized. Therefore, the sections were observed using a confocal laser scanning microscope, cells included in the field of view were counted, and the percentage (%) of the cells in which the inclusion bodies were formed to the total number of cells was measured. In each mouse, the cell count was averaged for 3 fields of view, in which over 130 or 70 cells were counted in the cortex or hippocampus, respectively. […]

SCA1 mice [2] = assay: rotarod test, arginine from 5 weeks of age (after onset); format: in vivo, mouse; settings: 6% arginine in drinking water from 5 weeks of age; 7 to 19 weeks of age; significant at 15 and 19 weeks
Method: An important factor of consideration in developing treatments for neurodegenerative diseases including polyQ diseases is whether the drug exerts its therapeutic effect at the symptomatic phase when the pathological process has already progressed. To date, therapeutic candidates have been administered to polyQ disease mice prophylactically at the pre-symptomatic phase in most preclinical studies.
The rotarod test was carried out in the same manner as in Example 4. The time courses of the amount of walking time until wild type mice and SCA1 mice fell from the rotarod (Latency) are shown in FIG. 21. In the figure, “WT Water”, “WT Arg”, “SCA1 Water”, and “SCA1 Arg” represent the same as in FIG. 17. In the figure, values represent means±SEM (n=23-25), “*” represents p<0.05.

[3] = test system: COS-7 cells expressing Q45-GFP; assay: FCS analysis of polyQ oligomer formation in cell lysates; format: cell-based; settings: 25 mM arginine, lysed 48 hours after transfection
Method: For polyQ oligomer formation, the fluorescent protein GFP fused with a protein having a PolyQ repeat consisting of 45 glutamines (Q45-GFP) was used as the monomer. Two indices obtained from FCS measurement were used to assess the property of polyQ oligomers; counts per particle (CPP) and the diffusion time of the fast components (DT1) (Non-Patent Document 11). […] DT1 reflects the size of the Q45-GFP oligomers.
FCS analysis was performed by the method described in Non-Patent Document 11. […] The cell lysates were gently sonicated and centrifuged to remove insoluble Q45-GFP inclusion bodies. The resulting supernatants containing no visible inclusion bodies were subjected to FCS measurements. From the measurements, the diffusion time, which corresponds to the average time for diffusion of fluorescent particles across the detection area and CPP, which directly reflects the number of fluorescent molecules per particle, were calculated.

amyloid-β (beta) 1-42 = biological target: T1, amyloid-β (beta) 1-42 (Homo sapiens, UniProt P05067); settings: Non-Patent Document 2; cited from earlier work
T1 construct: amyloid-β (beta) 1-42

SCA1 mice [4] = assay: rotarod test, arginine from 3 weeks of age; format: in vivo, mouse; settings: 6% by weight arginine in drinking water from 3 weeks of age
Source text: SCA1 mice express the abnormally expanded polyQ protein (the mutant ataxin 1 protein with polyQ repeats consisting of 154 glutamines) at endogenous levels and with accurate temporal and spatial patterns, and replicates numerous aspects of the human disease including progressive motor deficit. The SCA1 mice used in this experiment were a kind gift from Dr. Kei Watase (Tokyo Medical and Dental University, Japan).
Rotarod tests have been previously utilized for the assessment of motor function in SCA1 mice (Non-Patent Document 15).
For rotarod analysis, mice were tested on an accelerating rotarod apparatus (Ugo Basile) and performed according to the method described in Non-Patent Document 17. The time courses of the amount of walking time until wild type mice and SCA1 mice fell from the rotarod (Latency) are shown in FIG. 17. […] In the figure, values represent means±SEM (n=16-18), “**” represents p<0.01, and “***” represents p<0.001, respectively.

[5] = Non-Patent Document 5; cited from earlier work
[6] = test system: Q40-GFP expressing nematode line; assay: SDD-AGE of polyQ oligomers in nematode lysates; format: in vivo, Caenorhabditis elegans; settings: 10 mM arginine
Method: SDD-AGE was performed as follows. First, nematodes were lysed in lysis buffer (0.5% SDS, 0.5% NP-40, 50 mM Tris-HCl, 150 mM NaCl, 5 mM EDTA, protease inhibitor cocktail), the resulting lysate was run on a 1% agarose gel with 0.01% SDS in a running buffer of Tris-Glycine containing 0.01% SDS, and then transferred overnight onto a nitrocellulose membrane. For subsequent western blot analysis, the membrane was incubated with the anti-GFP antibody (MBL Life sciences) at 10,000 dilution as the primary antibody at 4° C. overnight, and then with the HRP-conjugated anti-rabbit IgG antibody (MBL Life sciences) at 20,000 dilution as the secondary antibody. Immunoblots were imaged using the Lumino image analyzer system “ImageQuant LAS 4000” (GE Healthcare Life Sciences) and analyzed using “ImageQuantTL” (GE Healthcare Life Sciences).

[7] = test system: Q40-GFP expressing nematode line; assay: tail-flick test in C. elegans model of the PolyQ diseases; format: in vivo, Caenorhabditis elegans; settings: 10 mM arginine, 6 days old nematodes, 20° C.
Method: As a C. elegans model of the polyQ diseases, a Q40-GFP expressing nematode line (Non-Patent Document 14), which is a C. elegans line expressing GFP having a polyQ repeat consisting of 40 glutamines (Q40-GFP) was used.
Nematodes were grown at 20° C. on nematode growth medium (NGM) plates seeded with Escherichia coli OP50. For the generation of the Q40-GFP expression nematode line, plasmids encoding Q40-GFP were injected into wild type strain N2.
Tail-flick tests were performed at 20° C. on nematodes synchronized to 6 days old. First, each nematode was transferred to a separate plate. One drop of S-basal solution was dropped on one nematode, and after waiting for 5 minutes for them to recover, the number of movements of the tail of the worm was measured for 1 minute. The number of movements of the tail was defined as the number of times to change the bending direction of the mid-body of a nematode.

T1 sequence (P05067 672-713 limits assumed): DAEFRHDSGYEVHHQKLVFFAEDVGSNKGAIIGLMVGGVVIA

In the case of `N=C(N)NCCC[C@H](N)C(=O)O` [arginine], the “percentage of cells with inclusion body formation, cerebral cortex” value (SCA1 mice [1]) is reported as “significantly decreased”, the “percentage of cells with inclusion body formation, hippocampus” value (SCA1 mice [1]) is reported as “significantly decreased” and the “time to walk without falling from the rotarod” value (SCA1 mice [2]) is reported as “longer time to walk without falling from the rotarod than the untreated SCA1 mice”. The “counts per particle (CPP)” value [3] was “decreased compared to untreated cells”, the “diffusion time of the fast components (DT1)” value [3] was “decreased compared to untreated cells” and the “aggregation of amyloid-β 1-42” value (amyloid-β (beta) 1-42) was “prevents aggregation”. For the same compound, the “motor function, rotarod latency” value (SCA1 mice [4]; 4 to 12 weeks of age) was “significantly better than the untreated mice”, the “therapeutic effect on rotarod, duration” value (SCA1 mice [4]; until 28 weeks of age) was “remained significant until 28 weeks of age” and the “crossing of the blood brain barrier (BBB)” value [5] was “known to cross the blood brain barrier”. For the same compound, the “smear intensity by image analysis” value [6] was “became smaller”, the “smear of Q40-GFP oligomers (SDD-AGE image)” value [6] was “much lighter and less broad smear” and the “tail movements per minute” value [7] was “significantly improved”.
